Measurements published in US20240226066A1, “CARDIOPROTECTION BY AUTOPHAGY INDUCTION AND METABOLIC REPROGRAMMING” (UNIVERSITE PARIS-SACLAY, priority 2021, published 2024).

What was measured:
RNVCs = experiment: Mitochondrial network and cell volume by confocal microscopy (Mitotracker, calcein-AM, IMARIS); type: cell-based, rat; details: 1 and 10 μM, 6 h
Method: FIG. 6. Effects on mitochondrial dynamics by fluorescence microscopy The RNVCs were treated with 1 μM hits (FIG. 6A) and 10 μM hits (FIG. 6B) for 6 h and the mitochondrial network was stained with 200 nM of Mitotracker. The mitochondrial network and individual mitochondria were then analyzed using a Leica confocal microscope and IMARIS software. Data are presented as mean±SEM with single-factor ANOVA, and multiple Sidak comparisons. *, p<0.05, **, p<0.01, ***, p<0.001 with respect to DMSO.
FIG. 11: following the treatment of the RNVCs with the compounds as indicated, the cell volume was stained with 4 μM of calcein-AM. The cell volume was then analyzed using the IMARIS software.
Confocal microscopy. On day 0, 4×10^5 neonatal cardiomyocytes were plated overnight on laminin-coated 35 mm culture dishes (10 μg/ml). On day 1, the cells were treated with various compounds at 1 or 10 μM for 6 hours. The cells were incubated with Mitotracker Red 580 at 200 nM for 20 minutes at 37° C., then 4 μM of calcein (Calcein AM, Life Technologies, St Aubin, France) for 10 minutes at 37° C. The images were acquired with a Leica confocal microscope (SP5) (Mannheim, Germany). The mitochondrial network and the 3D model of cell volume were reconstructed using the IMARIS software (Bitplane Company, Zurich, Switzerland); therefore the cell volume, mitochondrial number and volume were analyzed.
Due to the importance of mitochondria and reactive oxygen species (ROS) levels in the fate of cardiomyocyte cells, the hypothesis that the compounds could impact the mitochondrial network was explored. Following treatment of the RNVCs with the compounds tested, the mitochondrial network was stained with 200 nM of Mitotracker and the cell volume with 4 μM of calcein-AM. Thus, the mitochondrial network and the individual mitochondria were then analyzed using the IMARIS software.

DRP-1 = experiment: Western blot of DRP-1 phosphorylation (Ser616) in RNVCs; type: cell-based, rat
Method: FIG. 6D: Drp-1 and P-Drp-1 and MFN2 protein levels in RNVCs analyzed by western blotting. *, p<0.05, **, p<0.01, ***, p<0.001 with respect to DMSO. The experiments were reproduced 3 times. Representative western blotting images and quantification of three independent experiments are presented as mean±SEM with single-factor ANOVA, and multiple Sidak comparisons.
(§1) The H9C2 cells and RNVCs were detached in LB containing: 50 mM Tris, 150 mM NaCl, 1 mM EDTA, 0.5% deoxycholate, 1% Triton X 100, 0.1% SDS (pH 8.0). The cells were collected and placed on ice for 30 minutes. The cells were then centrifuged at 2000 g for 20 minutes at for 4° C. The supernatant was transferred to a new tube and stored on ice. The protein concentration was determined by BCA assay. The protein samples were diluted with sample buffer (2× Laemmli, Sigma), mixed, and heated for 5 minutes at 95° C. […] The images were recorded with a gel imaging system (Bio Rad). […]
(§2) Due to the importance of mitochondria and reactive oxygen species (ROS) levels in the fate of cardiomyocyte cells, the hypothesis that the compounds could impact the mitochondrial network was explored. […] Thus, the mitochondrial network and the individual mitochondria were then analyzed using the IMARIS software.

BAX = experiment: Western blot of BAX expression in RNVCs; type: cell-based, rat; details: 6 h treatment
Method: Levels of protein expression of BCL-2 (FIG. 3A and FIG. 3B) BXL-XL (FIG. 3C) and BAX (FIG. 3C), in the RNVCs after 6 h of treatment (FIG. 3A, FIG. 3C, FIG. 3D) or 24 h (FIG. 3B). Co., untreated cell control. Each experiment was reproduced at least three times. Representative western blotting images and quantification of three independent experiments are presented as mean±SEM with single-factor ANOVA, with multiple Sidak comparisons. *, p<0.05 with respect to DMSO.
as §1

[1] = tested on: A549 lung cancer cell line; experiment: Influence of hits on growth of A549 cancer cells (total LDH after lysis); type: cell-based; details: 48 h
Method: The cells were cultured for 6 h in the presence or absence of the hits, and then for 42 h. Finally, the cells were lysed with lysis buffer and the amount of LDH was measured to evaluate the total cell growth.
A colorimetric assay was used to measure lactate dehydrogenase (LDH), a cytosolic enzyme which is released during permeabilization of the plasma membrane (Promega G1780). The assay was performed using cell culture supernatants obtained from H9C2 or RNVC (rat neonatal ventricular myocyte) cells and lysis buffer (LB) was used as a positive control for total cell lysis. The LDH release was measured by absorbance reading at 490 nm (Infinite spectrofluorimeter, Tecan).
The effect of the compounds was then evaluated on primary rat neonatal ventricular cardiomyocytes (RNVCs) using the LDH test and propidium iodide staining. […] The absence of proliferative effects of the compounds was also evaluated on the A549 lung cancer cell line for 48 h (FIG. 2C).

MFN2 = experiment: Western blot of MFN2 in RNVCs; type: cell-based, rat
Method: (§3) FIG. 6C: MFN1 and MFN2 protein levels in RNVCs analyzed by western blotting.
as §1, §2

MFN1 = experiment: Western blot of MFN1 in RNVCs; type: cell-based, rat
Method: as §3, §1, §2

Compound | number of mitochondria (RNVCs) | total mitochondrial volume per cell (RNVCs) | phosphorylation of DRP-1 at Ser616, (DRP1-P)/(DRP-1 total) ratio (DRP-1) | expression of pro-apoptotic BAX protein (BAX) | effect on A549 cell growth [1] | expression of fusion protein MNF2 (MFN2) | expression of fusion protein MFN1 (MFN1)
O=C1NC(c2ccccc2)=N/C1=C\c1cc2ccccc2c2ccccc12 [SG6163F] | increased | increased | stimulated fission by phosphorylation of DRP-1 | significantly decreased | no proliferative effect |  | 
C[C@]12CC[C@H](O)C[C@H]1CC[C@@H]1[C@@H]2CC[C@]2(C)[C@@H](C3=CC(=O)OC3)CC[C@]12O [digitoxigenin] | increased | increased |  |  | significantly reduced cell growth and induced cell death | decreased | decreased
C[C@H]1O[C@@H](O[C@H]2[C@@H](O)C[C@H](O[C@H]3[C@@H](O)CC(O[C@H]4CC[C@@]5(C)[C@H](CC[C@@H]6[C@@H]5C[C@@H](O)[C@]5(C)[C@@H](C7=CC(=O)OC7)CC[C@]65O)C4)O[C@@H]3C)O[C@@H]2C)C[C@H](O)[C@@H]1O (some centres unmarked) [digoxin] | increased | increased | stimulated fission by phosphorylation of DRP-1 | significantly decreased | significantly reduced cell growth and induced cell death | decreased | decreased
